Assay results: ChEMBL document CHEMBL1165955, “Synthesis and biological evaluation of novel (4 or 5-aryl)pyrazolyl-indoles as inhibitors of interleukin-2 inducible T-cell kinase (ITK)” (Bioorg Med Chem, 2010)
The source made the active and inactive calls. No cut-off for these calls is given here.

Tests used:
[1] = target: T1, Tyrosine-protein kinase ITK/TSK (Homo sapiens, UniProt Q08881); assay: Inhibition of GST-tagged full length recombinant ITK after 2 hrs by IMAP assay
T1 sequence (Q08881 whole entry): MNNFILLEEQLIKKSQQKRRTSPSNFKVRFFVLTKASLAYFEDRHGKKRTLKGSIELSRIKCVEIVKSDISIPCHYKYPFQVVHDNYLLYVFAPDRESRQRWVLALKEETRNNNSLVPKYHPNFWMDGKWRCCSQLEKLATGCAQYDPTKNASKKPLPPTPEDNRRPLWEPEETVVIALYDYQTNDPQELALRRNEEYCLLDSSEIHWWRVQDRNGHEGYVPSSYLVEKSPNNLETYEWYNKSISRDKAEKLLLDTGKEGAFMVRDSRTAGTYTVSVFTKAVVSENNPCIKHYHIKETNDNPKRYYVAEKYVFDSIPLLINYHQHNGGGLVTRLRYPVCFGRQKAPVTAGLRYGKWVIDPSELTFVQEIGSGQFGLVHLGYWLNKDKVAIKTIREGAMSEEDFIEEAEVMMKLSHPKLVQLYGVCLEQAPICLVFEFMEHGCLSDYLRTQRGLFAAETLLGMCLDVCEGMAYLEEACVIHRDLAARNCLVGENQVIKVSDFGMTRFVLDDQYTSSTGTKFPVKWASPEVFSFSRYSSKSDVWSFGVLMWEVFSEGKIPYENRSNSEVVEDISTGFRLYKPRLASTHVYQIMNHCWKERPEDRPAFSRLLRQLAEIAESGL

Insulin receptor = Insulin receptor (Homo sapiens, UniProt P06213); assay: Inhibition of GST-tagged recombinant INSR catalytic domain expressed in baculovirus-infected Sf21 cells after 80 mins by IMAP assay
Chain of Insulin receptor (P06213 28-758 limits assumed): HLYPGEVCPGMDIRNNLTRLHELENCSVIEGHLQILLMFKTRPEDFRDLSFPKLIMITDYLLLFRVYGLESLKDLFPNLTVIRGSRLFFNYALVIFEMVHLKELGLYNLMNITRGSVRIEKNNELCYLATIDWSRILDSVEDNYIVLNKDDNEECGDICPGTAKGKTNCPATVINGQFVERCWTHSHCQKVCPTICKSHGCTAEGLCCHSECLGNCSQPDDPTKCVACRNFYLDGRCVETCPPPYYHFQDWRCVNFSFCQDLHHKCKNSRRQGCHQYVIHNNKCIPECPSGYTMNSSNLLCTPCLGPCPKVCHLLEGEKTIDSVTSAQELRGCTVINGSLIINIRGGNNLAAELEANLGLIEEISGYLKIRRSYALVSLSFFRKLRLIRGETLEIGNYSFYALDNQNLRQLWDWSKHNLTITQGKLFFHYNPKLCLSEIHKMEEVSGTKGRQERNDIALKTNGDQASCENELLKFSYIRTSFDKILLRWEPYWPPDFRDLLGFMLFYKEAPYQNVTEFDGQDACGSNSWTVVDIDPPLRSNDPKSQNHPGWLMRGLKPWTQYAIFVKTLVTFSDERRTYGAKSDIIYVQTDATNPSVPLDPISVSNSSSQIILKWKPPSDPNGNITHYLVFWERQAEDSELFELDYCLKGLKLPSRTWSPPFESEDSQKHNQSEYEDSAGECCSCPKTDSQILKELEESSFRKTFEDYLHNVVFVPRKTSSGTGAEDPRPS
Chain of Insulin receptor (P06213 763-1382 limits assumed): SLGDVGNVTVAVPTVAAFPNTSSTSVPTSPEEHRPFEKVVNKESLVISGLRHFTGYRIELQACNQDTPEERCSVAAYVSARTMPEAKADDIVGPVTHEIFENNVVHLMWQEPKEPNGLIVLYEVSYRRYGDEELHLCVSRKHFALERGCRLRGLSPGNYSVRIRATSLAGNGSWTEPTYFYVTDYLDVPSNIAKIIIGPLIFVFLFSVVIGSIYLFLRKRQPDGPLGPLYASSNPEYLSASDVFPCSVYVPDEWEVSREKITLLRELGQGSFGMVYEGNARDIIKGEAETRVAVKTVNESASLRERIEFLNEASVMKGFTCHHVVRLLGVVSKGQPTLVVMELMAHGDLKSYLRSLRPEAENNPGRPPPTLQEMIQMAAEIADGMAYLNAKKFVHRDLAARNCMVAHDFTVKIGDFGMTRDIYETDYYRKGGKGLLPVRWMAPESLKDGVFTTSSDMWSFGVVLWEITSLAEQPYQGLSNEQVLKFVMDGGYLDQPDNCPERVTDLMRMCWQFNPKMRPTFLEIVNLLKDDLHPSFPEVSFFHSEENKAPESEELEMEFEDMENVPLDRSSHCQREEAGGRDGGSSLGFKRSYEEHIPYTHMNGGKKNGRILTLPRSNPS

[2] = target: Cyclin-dependent kinase 2/cyclin E1 (Homo sapiens, UniProt P24941); assay: (§1) Inhibition of GST-tagged full length CDK2/Cyclin E after 40 mins by IMAP assay; format: protein-complex assay
[3] = target: Glycogen synthase kinase-3 beta (Homo sapiens, UniProt P49841); assay: Inhibition of GST-tagged full length GSK3-beta assessed as inhibition of ATP consumption after 60 mins by luminescence assay
Chain of Glycogen synthase kinase-3 beta (P49841 whole entry, the tested form may be a part): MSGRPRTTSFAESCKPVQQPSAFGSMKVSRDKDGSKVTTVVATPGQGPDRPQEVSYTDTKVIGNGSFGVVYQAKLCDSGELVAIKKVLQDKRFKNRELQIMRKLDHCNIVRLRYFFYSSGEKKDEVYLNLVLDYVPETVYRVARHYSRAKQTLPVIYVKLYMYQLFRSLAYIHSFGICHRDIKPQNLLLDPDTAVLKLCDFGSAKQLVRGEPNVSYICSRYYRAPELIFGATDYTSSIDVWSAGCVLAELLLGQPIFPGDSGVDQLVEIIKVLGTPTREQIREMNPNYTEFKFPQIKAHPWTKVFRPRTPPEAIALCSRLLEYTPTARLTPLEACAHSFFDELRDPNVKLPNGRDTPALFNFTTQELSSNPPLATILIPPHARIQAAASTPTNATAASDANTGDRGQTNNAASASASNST

[4] = Inhibition of histidine-tagged PKA catalytic domain after 40 mins by IMAP assay
[5] = target: RAC-alpha serine/threonine-protein kinase (Homo sapiens) (UniProt P31749); assay: Inhibition of histidine-tagged full length AKT1 after 1 hr by IMAP assay
Chain of RAC-alpha serine/threonine-protein kinase (Homo sapiens) (P31749 whole entry): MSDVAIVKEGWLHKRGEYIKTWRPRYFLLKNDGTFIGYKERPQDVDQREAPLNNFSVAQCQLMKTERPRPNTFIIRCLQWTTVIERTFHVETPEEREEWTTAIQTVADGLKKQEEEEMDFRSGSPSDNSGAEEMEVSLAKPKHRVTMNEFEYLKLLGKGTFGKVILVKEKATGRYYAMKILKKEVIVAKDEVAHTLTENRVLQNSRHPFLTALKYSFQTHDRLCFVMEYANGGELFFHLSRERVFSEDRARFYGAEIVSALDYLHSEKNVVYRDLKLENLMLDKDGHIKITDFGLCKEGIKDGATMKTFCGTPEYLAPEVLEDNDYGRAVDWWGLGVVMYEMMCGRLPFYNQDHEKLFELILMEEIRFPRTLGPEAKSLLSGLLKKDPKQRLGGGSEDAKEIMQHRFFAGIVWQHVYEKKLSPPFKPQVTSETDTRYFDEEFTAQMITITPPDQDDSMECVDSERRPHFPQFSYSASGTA

[6] = target: Cyclin-dependent kinase 2/cyclin E1 (Homo sapiens, UniProt P24864+P24941); assay: as §1; format: protein-complex assay
[7] = Selectivity ratio of IC50 for GST-tagged recombinant INSR catalytic domain to IC50 for GST-tagged full length recombinant ITK

Row | IC50 [1] [nM] | IC50 (Insulin receptor) [µM] | IC50 [2] [nM] | Structure (SMILES) | further results
1 | 1000 | 20 | 12600 | Cn1nccc1CNC(=O)c1ccc2cc(-c3cc(Cc4ccccc4)[nH]n3)[nH]c2c1 | IC50 [3]: Not Active; IC50 [4]: Not Active
2 | 790 | 7.08 | 630 | Cn1cncc1CNC(=O)c1ccc2cc(-c3n[nH]cc3-c3ccccc3)[nH]c2c1 | IC50 ([3]; read-out: IC50): 540 nM; IC50 ([4]; read-out: IC50): 10 µM
3 | 630 | 9.33 | 160 | Cn1nccc1CNC(=O)c1ccc2cc(-c3n[nH]cc3-c3ccccc3)[nH]c2c1 | IC50 ([3]; read-out: IC50): 1260 nM; IC50 ([4]; read-out: IC50): 7.08 µM
4 | > 100000 | – | – | CC(C)CN(C)C(=O)c1ccc2c(CNCCCO)c(-c3n[nH]cc3-c3ccccc3)[nH]c2c1 | –
5 | 2510 | – | – | COCCNC(=O)c1ccc2cc(-c3n[nH]cc3-c3ccccc3)[nH]c2c1 | –
6 | 630 | 5.01 | 31600 | Cn1cncc1CNC(=O)c1ccc2cc(-c3cc(Cc4ccccc4)[nH]n3)[nH]c2c1 | IC50 [3]: Not Active; IC50 [4]: Not Active
7 | 3160 | – | – | COCCNC(=O)c1ccc2cc(-c3cc(-c4ccccc4)[nH]n3)[nH]c2c1 | –
8 | 5000 | – | – | CNC(=O)c1ccc2c(CNCc3ccncc3)c(-c3cc(Cc4ccccc4)[nH]n3)[nH]c2c1 | –
9 | 560 | > 100 | – | CC(C)CN(C)C(=O)c1ccc2cc(-c3cc(Cc4ccccc4)[nH]n3)[nH]c2c1 | inhibition [5]: inactive; IC50 [6]: Not Active; IC50 [3]: Not Active; IC50 [4]: Not Active
10 | 330 | > 10 | 3160 | CC(C)CN(C)C(=O)c1ccc2cc(-c3n[nH]cc3-c3ccccc3)[nH]c2c1 | IC50 ([3]; read-out: IC50): 6760 nM; IC50 [4]: Not Active; Ratio IC50 [7]: > 30
11 | 1580 | – | – | Cn1nccc1CNC(=O)c1ccc2c(CO)c(-c3cc(Cc4ccccc4)[nH]n3)[nH]c2c1 | –
12 | 20400 | – | – | COc1ccc(CNCc2c(-c3n[nH]cc3-c3ccccc3)[nH]c3cc(C(=O)N(C)CC(C)C)ccc23)cc1 | –
13 | 630 | – | – | Cn1cncc1CNC(=O)c1ccc2c(CN3CCOCC3)c(-c3cc(Cc4ccccc4)[nH]n3)[nH]c2c1 | –
14 | 1820 | – | – | Cc1oncc1CNC(=O)c1ccc2cc(-c3cc(-c4ccccc4)[nH]n3)[nH]c2c1 | –
15 | 850 | – | – | CC(C)CN(C)C(=O)c1ccc2cc(-c3cc(-c4ccccc4)[nH]n3)[nH]c2c1 | –
16 | 630 | 5.75 | 400 | Cc1oncc1CNC(=O)c1ccc2cc(-c3n[nH]cc3-c3ccccc3)[nH]c2c1 | IC50 ([3]; read-out: IC50): 2290 nM; IC50 ([4]; read-out: IC50): 5.01 µM
17 | > 100000 | – | – | CC(C)CN(C)C(=O)c1ccc2c(CO)c(-c3n[nH]cc3-c3ccccc3)[nH]c2c1 | –
18 | 3160 | – | – | Cn1nccc1CNC(=O)c1ccc2cc(-c3cc(-c4ccccc4)[nH]n3)[nH]c2c1 | –
19 | 1260 | – | – | Cn1cncc1CNC(=O)c1ccc2cc(-c3cc(-c4ccccc4)[nH]n3)[nH]c2c1 | –
20 | 500 | – | – | CC(C)CN(C)C(=O)c1ccc2c(CNCc3ccc(F)cc3)c(-c3cc(Cc4ccccc4)[nH]n3)[nH]c2c1 | –
